Data taken from patent US20250049791A1, “Synthesis of MEK7 Inhibitors and methods of Use Thereof” (Northwestern University, priority 2023, published 2025).
Read-outs that look alike come from different tables or passages of the source.

Assays:
[1] = molecular target: T1, recombinant active full-length human MEK7 (Homo sapiens, UniProt O14733); test: ADP-Glo kinase activity assay, MEK7 with JNK1 substrate; format: biochemical; settings: for IC50: 30 min preincubation; for in vitro activity against MAP2K7, in words: ADP-Glo assay, comparison within the series
T1 construct: recombinant active full-length human MEK7 (Carna Biosciences); purchased Carna Biosciences
T1 sequence (O14733 1-419): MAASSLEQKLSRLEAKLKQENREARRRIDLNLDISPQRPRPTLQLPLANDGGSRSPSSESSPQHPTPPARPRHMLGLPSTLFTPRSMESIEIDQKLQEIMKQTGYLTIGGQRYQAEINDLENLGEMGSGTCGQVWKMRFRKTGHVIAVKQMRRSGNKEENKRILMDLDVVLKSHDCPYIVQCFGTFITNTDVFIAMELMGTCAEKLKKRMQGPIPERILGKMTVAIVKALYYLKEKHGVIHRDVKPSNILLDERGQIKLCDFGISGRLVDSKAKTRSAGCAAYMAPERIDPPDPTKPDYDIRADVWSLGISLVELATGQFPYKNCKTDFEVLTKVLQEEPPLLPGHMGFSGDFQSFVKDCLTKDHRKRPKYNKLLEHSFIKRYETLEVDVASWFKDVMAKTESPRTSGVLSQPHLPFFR
Experimental: Procedure for a 5 μL Kinase reaction using the ADP-Glo Kinase Assay Kit from Promega. Staurosporine was used as the positive control, and DMSO (vehicle) was employed as the negative control. Activity of recombinant active full-length human MEK7 (Carna Biosciences) was measured with recombinant full-length human substrate JNK1 (MAPK8). Using a Mantis, a mixture of MEK7 and JNK1 was dispensed into a 384-well low volume white Proxiplate. For each well, 4 ng of MEK7 and 600 ng of JNK1 in kinase buffer (CST) were used, accounting for 1 μL of this mixture per well. Inhibitor was prepared in a DMSO solution (40 mM). A dose-response dilution was performed in a 384-well Echo transfer plate. Using an Echo Access, 10 nL of each solution was dispensed into the same 384-well low volume white Proxiplate as above. This mixture was allowed to incubate for 30 minutes at room temperature. Using a Mantis, 1 uL of an 8 μM ATP solution was added to each well, and the plate was allowed to incubate for another 1 hour at room temperature. Using the Mantis again, 4 μL of ADP Glo Reagent was dispensed into each well, and the plate was allowed to incubate for 45 min at room temperature. Finally, 9 μL of Kinase Detection Reagent was added manually to each well, and the plate was allowed to incubate for 45 minutes at room temperature. Luminescence was read on a Synergy Neo2 Plate Reader with filter cubes 3 and 114. Integration time was set to 0.20 seconds, gain set to 160, and read height set at 6 mm. All experiments were performed in triplicate on the plate, and at least in one separate technical duplicate was performed.
MEK4 selectivity was performed in the same manner with activated MEK4 (Carna Biosciences). Here, p-38α was employed as the kinase substrate in lieu of JNK1 due to the availability of reagents. […] To probe the ATP-competitive nature of 25, this compound was subjected to a similar assay forgoing the 30 minute incubation time described above (STAR Protocols 2021, 2, 100717). The results are tabulated below in compound characterization. Potency determined by duplicate of triplicates corresponded to a IC50 value, which is in line with the ratio difference observed among other covalent inhibitors (for examples, see Cell Chem. Biol. 2020, 27, 1285).

MEK3 = molecular target: T2, MEK3 (Homo sapiens, UniProt P46734); test: Additional selectivity assay, MEK3 (FIG. 9); format: binding
T2 sequence (P46734 1-347): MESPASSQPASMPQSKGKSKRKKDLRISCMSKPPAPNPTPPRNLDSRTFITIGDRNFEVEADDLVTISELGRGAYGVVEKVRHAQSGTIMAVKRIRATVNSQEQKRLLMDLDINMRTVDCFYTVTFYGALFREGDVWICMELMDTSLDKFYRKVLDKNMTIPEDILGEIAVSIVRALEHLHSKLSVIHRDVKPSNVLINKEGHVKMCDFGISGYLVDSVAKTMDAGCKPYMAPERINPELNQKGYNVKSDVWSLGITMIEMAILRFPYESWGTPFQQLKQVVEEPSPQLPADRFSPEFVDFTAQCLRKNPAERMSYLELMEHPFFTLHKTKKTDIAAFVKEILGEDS

MEK5 = molecular target: T3, MEK5 (Homo sapiens, UniProt Q13163); test: Additional selectivity assay, MEK5 (FIG. 9); format: binding
T3 sequence (Q13163 1-448): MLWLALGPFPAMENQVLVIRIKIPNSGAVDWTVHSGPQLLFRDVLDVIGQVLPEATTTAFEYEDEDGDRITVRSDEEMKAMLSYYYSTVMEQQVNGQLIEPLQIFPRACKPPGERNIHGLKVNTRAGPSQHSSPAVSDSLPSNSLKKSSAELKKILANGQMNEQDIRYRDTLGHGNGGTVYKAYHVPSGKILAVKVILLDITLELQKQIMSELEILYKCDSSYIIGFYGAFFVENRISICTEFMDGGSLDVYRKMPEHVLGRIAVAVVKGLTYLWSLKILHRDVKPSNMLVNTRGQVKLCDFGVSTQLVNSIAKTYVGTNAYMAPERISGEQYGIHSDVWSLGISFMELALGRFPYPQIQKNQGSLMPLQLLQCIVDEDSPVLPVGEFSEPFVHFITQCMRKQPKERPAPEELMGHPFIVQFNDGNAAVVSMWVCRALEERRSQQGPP

MEK6 = molecular target: T4, MEK6 (Homo sapiens, UniProt P52564); test: Additional selectivity assay, MEK6 (FIG. 9); format: binding
T4 sequence (P52564 1-334): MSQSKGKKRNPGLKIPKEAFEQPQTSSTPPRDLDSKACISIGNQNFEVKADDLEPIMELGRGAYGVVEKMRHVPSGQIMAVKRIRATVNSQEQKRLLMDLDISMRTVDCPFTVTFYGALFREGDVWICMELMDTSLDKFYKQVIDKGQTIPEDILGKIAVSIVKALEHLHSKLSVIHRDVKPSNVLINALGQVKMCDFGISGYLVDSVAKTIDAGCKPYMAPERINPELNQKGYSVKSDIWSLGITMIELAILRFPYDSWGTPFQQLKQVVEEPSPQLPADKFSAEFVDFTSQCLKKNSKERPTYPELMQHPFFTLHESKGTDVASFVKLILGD

PAMPA permeability = format: in vitro ADME; settings: FIG. 12
[2] = overall value of two experiments, read-out: MEK7 IC50
[3] = MEK7 IC50, first experiment (IC50±SEM, n=3), first value in brackets
[4] = MEK7 IC50, second experiment (IC50±SEM, n=3), second value in brackets

SMILES	IC50 [1, 2] [nM]	IC50 ([1]; read-out: MEK7 IC50) [nM]	IC50 [1, 3] [nM]	IC50 [1, 4] [nM]	activity/binding at MEK3 (MEK3)	activity/binding at MEK5 (MEK5)	activity/binding at MEK6 (MEK6)	PAMPA cell permeability (PAMPA permeability)	in vitro activity against MAP2K7, in words [1]
CNc1cc(Oc2cccc(NC(=O)CCl)c2)ncn1 [Compound 8, 2-chloro-N-(3-((6-(methylamino)pyrimidin-4-yl)oxy)phenyl)acetamide]	60	60	87 ± 41	34 ± 42	inactive	inactive	inactive	highly membrane permeable	–
C=CC(=O)Nc1cccc(Oc2cc(NC)ncn2)c1 [Compound 9, N-(3-((6-(methylamino)pyrimidin-4-yl)oxy)phenyl) acrylamide]	–	–	230 ± 190	610 ± 400	inactive	inactive	inactive	–	less active than compound 8
CNc1cc(Oc2cccc(NC(=O)C(C)(C)CCl)c2)ncn1 [Compound 11, 3-chloro-2,2-dimethyl-N-(3-((6-(methylamino)pyrimidin-4-yl)oxy)phenyl) propenamide]	–	–	–	–	–	–	–	–	less potent
O=C(CCl)Nc1cccc(Oc2cc(NCCc3ccccc3)ncn2)c1 [Compound 18]	1200	–	730 ± 220	1700	–	–	–	–	–
